Here are results for 10 compounds from PubChem BioAssay (NCI).

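Protocol summary: plate cells (96-well), add compound at 5 concentrations, incubate 48 h, interpolate endpoints linearly. TGI denotes the concentration required for complete inhibition of growth.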

Some test systems named below: MDA-MB-435; OVCAR-8 ovarian; SF-539 CNS; U251 CNS; A498 renal; LOX IMVI melanoma; OVCAR-5 ovarian; KM12 colon; M14 melanoma; K-562 leukemia; SK-MEL-28 melanoma.
Test in all cases: inhibition of tumour cell growth, NCI panel, 48 h

On to `CSC(SC)=C(C(=O)c1ccc(Cl)cc1)n1c(=O)sc2cc(Br)ccc21`, for which the TGI with MDA-MB-435, in the test on OVCAR-8 ovarian, in the test with SF-539 CNS, in the test on U251 CNS, in the test with A498 renal and with LOX IMVI melanoma was more than 100 µM in each case. Further, the TGI in the test on OVCAR-5 ovarian, in the test with KM12 colon, in the test with M14 melanoma, with K-562 leukemia and in the test on SK-MEL-28 melanoma was more than 100 µM in each case.
Turning to `Oc1ccc(C(O)C2CCCCN2)cc1O` (stereo not given), the TGI in the test with MDA-MB-435 is more than 100 µM; in the test on OVCAR-8 ovarian, more than 100 µM; in the test with SF-539 CNS it was more than 100 µM; with U251 CNS it was more than 100 µM; in the test with A498 renal it was more than 100 µM; in the test with LOX IMVI melanoma, 65.5 µM. Further, the TGI in the test on OVCAR-5 ovarian, in the test on KM12 colon, with M14 melanoma, in the test on K-562 leukemia and in the test on SK-MEL-28 melanoma was more than 100 µM in each case.
In the case of `N#Cc1c(NC(=S)Nc2ccc(Cl)cc2)sc2c1CCN(N1CCc3c(sc(NC(=S)Nc4ccc(Cl)cc4)c3C#N)C1)C2`, the TGI with MDA-MB-435 is more than 100 µM; with OVCAR-8 ovarian, 88.5 µM; with SF-539 CNS it was 34.2 µM; in the test with U251 CNS, 86.2 µM; with A498 renal, 36.9 µM; with LOX IMVI melanoma it was 23.4 µM. The TGI is 31.1 µM with OVCAR-5 ovarian; more than 100 µM in the test on KM12 colon; 23.2 µM with M14 melanoma; more than 100 µM with K-562 leukemia; more than 100 µM in the test on SK-MEL-28 melanoma.
As for `FC1=C2C3CCC(C3)C2C1(F)F` (stereo not given), the TGI in the test on MDA-MB-435, with OVCAR-8 ovarian, with SF-539 CNS, with U251 CNS, in the test on A498 renal and in the test with LOX IMVI melanoma was more than 100 µM in each case. In addition, the TGI in the test on OVCAR-5 ovarian, with KM12 colon, with M14 melanoma, in the test with K-562 leukemia and in the test on SK-MEL-28 melanoma was more than 100 µM each time.
In the case of `COC1CC(C)(NC(=O)C(F)(F)F)C2OC(c3ccccc3)OCC2O1` (stereo not given), the TGI in the test with MDA-MB-435, with OVCAR-8 ovarian, with SF-539 CNS, in the test on U251 CNS, in the test with A498 renal and with LOX IMVI melanoma was more than 100 µM each time. The TGI with OVCAR-5 ovarian, in the test on KM12 colon, in the test with M14 melanoma, in the test with K-562 leukemia and in the test on SK-MEL-28 melanoma was more than 100 µM in each case.
For `ClC1=NN=C(c2c[nH]c3ccccc23)CC1NCc1ccccc1` (stereo not given), the TGI with MDA-MB-435, with OVCAR-8 ovarian, with SF-539 CNS, with U251 CNS, with A498 renal and with LOX IMVI melanoma was more than 100 µM throughout. The TGI in the test with OVCAR-5 ovarian, in the test with KM12 colon, in the test with M14 melanoma, in the test with K-562 leukemia and in the test with SK-MEL-28 melanoma was more than 100 µM each time.
For `CN1CCN(C(=O)c2cn(Cc3cncn3Cc3ccc4c(c3)OCO4)cc2-c2cccc3ccccc23)CC1`, the TGI is more than 58.9 µM in the test with MDA-MB-435; more than 100 µM in the test with OVCAR-8 ovarian; more than 72.8 µM in the test with SF-539 CNS; more than 100 µM in the test on U251 CNS; 32.1 µM with A498 renal; 47.8 µM with LOX IMVI melanoma. Moreover, the TGI was more than 100 µM in the test with OVCAR-5 ovarian; more than 58.3 µM with KM12 colon; 46 µM with M14 melanoma; 53.5 µM in the test with K-562 leukemia; 63.6 µM in the test on SK-MEL-28 melanoma.
For `COC1(CC[C@@H](C)COC2OC(CO)C(O)C(O)C2O)OC2C[C@H]3[C@@H]4CC[C@H]5C[C@@H](OC6OC(CO)C(OC7OC(CO)C(O)C(O)C7O)C(O)C6OC6OC(C)C(O)C(O)C6O)[C@H](O)C[C@]5(C)[C@H]4CC[C@]3(C)C2[C@@H]1C` (stereo not given in full), the TGI with MDA-MB-435 was determined as 3.5 µM; in the test with OVCAR-8 ovarian, 3.75 µM; in the test on SF-539 CNS, 3.34 µM; in the test with U251 CNS, 3.49 µM; in the test on A498 renal it was 3.38 µM; with LOX IMVI melanoma it was 3.22 µM. For the same compound, the TGI turned out to be 4.57 µM with OVCAR-5 ovarian; 5.02 µM with KM12 colon; 3.36 µM in the test with M14 melanoma; 7.81 µM in the test on K-562 leukemia; 3.37 µM with SK-MEL-28 melanoma.
On to `CC(Nc1ccc(Cl)cc1)c1ccncc1` (stereo not given), for which the TGI in the test with MDA-MB-435, in the test with OVCAR-8 ovarian, in the test with SF-539 CNS, in the test on U251 CNS, in the test on A498 renal and in the test on LOX IMVI melanoma was more than 100 µM in each case. Also, the TGI in the test with OVCAR-5 ovarian, in the test on KM12 colon, in the test on M14 melanoma, in the test with K-562 leukemia and with SK-MEL-28 melanoma was more than 100 µM in each case.
With `Cc1ccccc1NC(=O)O/N=C(\Cl)C(C)C`, the TGI is 30.1 µM in the test on MDA-MB-435; 33.8 µM in the test with OVCAR-8 ovarian; 22.6 µM in the test on SF-539 CNS; 39.9 µM in the test with U251 CNS; 36.4 µM in the test on A498 renal; 3.11 µM in the test on LOX IMVI melanoma. Besides, the TGI in the test on OVCAR-5 ovarian was 40.5 µM; in the test with KM12 colon, 36.2 µM; in the test with M14 melanoma, 12.1 µM; with K-562 leukemia, 5.51 µM; in the test on SK-MEL-28 melanoma, 6.25 µM.
